Literature values, collected in publication PMC7765247 (Bioorganic & medicinal chemistry letters, 2020).

Tested on: PC-3 cells
Conditions: anoxia (< 10 ppm oxygen in gas phase); ref Patterson el. al.

## CS(=O)(=O)OCCN(CCBr)c1c(C(=O)NCCO)cc([N+](=O)[O-])cc1[N+](=O)[O-] [Compound 16, PR-104A]
  hypoxia-selectivity ratio in PC-3 cells: approximately 15
